Test results published in patent US20070249545A1, “DIHYDROFOLATE REDUCTASE INHIBITION BY EPIGALLOCATECHIN GALLATE COMPOUNDS” (priority 2004, published 2007).

How the values were obtained:
L1210 cells = assay: EGCG cytotoxicity / growth of L1210 cells; type: cell-based, mouse
Experimental: L1210 cells were plated at a density of 10,000 cells/ml in 96-well plates with a “standard folate” RPMI 1640 medium supplemented with 10% FCS. Reversion experiments were carried out in an HT medium and/or by adding 50 μM ascorbic acid (AA). Cell injury was evaluated by a calorimetric assay for mitochondrial function using the MTT test.^29
The effect of different EGCG concentrations on L1210 cell growth after 29 h of treatment at two different folic acid concentrations was determined. The cells were previously adapted over a period of 2-3 days to grow in folate-free RPMI 1640 medium supplemented with 10% dialyzed FCS and 2 mM glutamine. This medium is subsequently referred to as LF (low folate). For the cytotoxicity assay, the cells were grown in LF media supplemented with folic acid (3 μM or 300 nM). Treatments were carried out in triplicate, and each experiment performed at least twice. Cell growth was determined by two different methods, Coulter counter Z2 and hemocytometer (FIG. 7). IC50 values were determined at each folic acid concentration added to the medium.
The growth-inhibitory effects of 10 μM EGCG at various folic acid concentrations were determined at two different time intervals. L1210 cells were cultured in a LF medium supplemented with the corresponding folic acid concentration. The data were obtained by using a Coulter counter and hemocytometer and expressed assuming a zero percentage of growth inhibition for untreated control (FIG. 8). Cells were maintained in the corresponding medium with 100 μg/ml of penicillin and streptomycin at 37° C. in a humid 7.5% CO2, […] environment for all the experiments.

Caco-2 = assay: Growth of Caco-2 colon cancer cells; type: cell-based, human
Experimental: To determine whether EGCG inhibits DHFR activity in vivo, two human cancer cell, (Caco-2 from colon cancer and Jurkat T a lymphoma cell line) were incubated with various concentrations of EGCG in a standard medium.

NF-κB = assay: TNF-α-mediated activation of NF-κB (Western blot); type: cell-based; conditions: 24 hours, then TNF-α, IκBα, phospho-IκBα, Akt
Experimental: To check if the antifolate activity of EGCG is related to the suppression of activation of NF-κB, cells were grown in the presence of EGCG or MTX. After 24 hours, the cells were induced with TNF-α and the content of proteins related to NF-κB activation (IκBα, phospho-IκBα, Akt and phosphor-Akt) was checked by Western blot (FIG. 16A).

urokinase = urokinase (Homo sapiens, UniProt P00749); conditions: in vitro; cited from earlier work
chicken liver DHFR = target: T1, chicken liver DHFR (Gallus gallus, UniProt P00378); assay: Kinetic analysis of inhibition of chicken liver DHFR; type: biochemical
T1 construct: from tissue; host or cells: chicken liver
T1 sequence (P00378 whole entry): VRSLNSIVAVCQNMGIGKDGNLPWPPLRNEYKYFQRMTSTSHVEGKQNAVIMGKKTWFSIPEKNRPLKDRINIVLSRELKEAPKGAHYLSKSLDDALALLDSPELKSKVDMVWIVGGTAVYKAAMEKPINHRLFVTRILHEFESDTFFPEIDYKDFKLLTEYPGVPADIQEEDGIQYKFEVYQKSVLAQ
Experimental: The activity of DHFR was determined at 25° C. by following the decrease of NADPH and DHF by absorbance measurements at 340 nm (ε=11,800 M^−1 cm^−1) by using a Perkin-Elmer Lambda-2 spectrophotometer with cuvettes of 1.0 cm light-path.
Experiments were performed at pH 7.58 and 25° C. in a buffer containing 2-(N-morpholino)ethanesulfonic acid (MES, 25 mM), sodium acetate (25 mM), tris(hydroxymethyl)aminomethane (Tris 50 mM), and NaCl (100 mM). To prevent the oxidation of catechins, the reaction mixture contained 1 mM ascorbic acid. The pH of the reaction was measured before and after of the experiment. The assays were started by the addition of enzyme. In the absence of the enzyme, the rate of change of absorbance was negligible.
Lineweaver-Burk plots were made of the reaction of chicken liver DHFR (3.3 nM) with DHF and NADPH. For initial velocity inhibition experiments one substrate (NADPH) was held constant at saturating concentration (100 μM) while the concentration of the other substrate (DHF) and the inhibitor (EGCG) were varied (FIG. 3). […] This initial concentration of saturating NADPH was considered as constant after the consumption of 10 μM DHF by the addition of enzyme. Data were fitted by nonlinear regression to the integrated form (31) of the Michaelis equation. The fitting was performed by using Marquart's algorithm (32) implemented in the Sigma Plot 2.01 for Windows (33). […]

free rHDHFR = target: T2, free rHDHFR (Homo sapiens, UniProt P00374); assay: Binding of EGCG to free DHFR by quenching of enzyme fluorescence; conditions: read-out: dissociation constant
T2 sequence (P00374 1-187): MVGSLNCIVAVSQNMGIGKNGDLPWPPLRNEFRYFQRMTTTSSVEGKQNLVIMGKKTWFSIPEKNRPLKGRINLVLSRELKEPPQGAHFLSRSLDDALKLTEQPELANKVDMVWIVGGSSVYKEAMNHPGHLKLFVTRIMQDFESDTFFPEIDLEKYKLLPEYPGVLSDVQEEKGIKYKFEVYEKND
Experimental: The binding of EGCG to free DHFR was determined by following the decrease in enzyme fluorescence that occurs on formation of the enzyme-inhibitor complex. […] The binding of EGCG quenches this fluorescence. The data for the resulting titration curves were used for dissociation constant determinations.

[1] = target: T3, recombinant human DHFR (rHDHFR) (Homo sapiens, UniProt P00374); assay: Inhibition of human DHFR by tea catechins; type: biochemical
T3 sequence (P00374 1-187): T2 sequence (P00374 1-187)

S. maltophilia strain 1 = assay: Time kill assay for bactericidal and bacteriostatic effects; type: cell-based, Stenotrophomonas maltophilia
Experimental: A time kill assay was performed for strain 1. Glass tubes containing cation-adjusted Mueller-Hinton broth, with doubling antibiotic concentration were inoculated with 5×10^5 CFU/ml and were incubated at 37° C. for 24 h. Antibiotic concentrations were chosen to comprise three doubling dilutions above and two doubling dilutions below the broth dilution MIC. Inoculation of each serially diluted antibiotic tube was performed following NCCLS guidelines for broth dilution method. Viability counts of antibiotic-containing suspensions were carried out at 0, 3, 6, 12 and 24 h, by plating 10 μl aliquots of 10-fold dilutions from each tube in sterile saline onto Columbia agar supplemented with 5% of defibrinated sheep blood. The plates used to recover organisms were incubated for up to 24 h. The lower limit of sensibility of colony counts was 100 CFU/ml. Time kill assay results were analyzed by determining changes in the log10 CFU/ml compared to the counts at zero-time for the six different concentrations of EGCG. Bactericidal effect was defined at the lowest concentration that reduced the original inoculums by ≧3 log10 CFU/ml after a period of time and bacteriostatic if the inoculums was reduced by 0 to 3 log10 CFU/ml.

Substance: (−)-epigallocatechin gallate [EGCG]
- growth inhibition in HT medium containing ascorbic acid, NAC or SOD (L1210 cells; L1210, EGCG 20 μM): completely removed the inhibitory effect
- growth inhibition with ascorbic acid in the medium (L1210 cells; L1210, EGCG 20 μM, antioxidant ascorbic acid): partially lifted
- growth inhibition in HT medium, low folate (L1210 cells; L1210, LF medium (30 nM folic acid), EGCG 1 μM): completely reversed
- growth inhibition in HT medium (L1210 cells; L1210, hypoxanthine-thymidine (HT) medium, EGCG 20 μM): high level of inhibition reversal
- IC50 (L1210 cells; RPMI 1640 medium with 10% FCS (standard folate)): 20 µM
- apoptosis (Caco-2): induction of apoptosis
- cell cycle effect (Caco-2): G0/G1 phase arrest
- effects in HT medium and in the presence of folinic acid or thymine (Caco-2): highly attenuated
- IC50 (Caco-2; standard medium, read-out: IC50 of cell growth): 30 µM
- effects on proteins related to NF-κB activation, with folinic acid (NF-κB): highly reversed by folinic acid
- concentration needed to inhibit urokinase activity (urokinase): 2 to 10 mM
- Ki (chicken liver DHFR; chicken liver DHFR, from secondary plot, read-out: KI as a competitive inhibitor of DHF): 10.3 µM
- inhibition after preincubation and 500-fold dilution (chicken liver DHFR; enzyme 1.65 μM preincubated with 20 to 50 μM inhibitor for 30 min, 500-fold dilution into DHF/NADPH assay): did not produce any measurable inhibition
- Kd (free rHDHFR): 800 nM
- Ki [1]: 2000 nM
- inhibition of rHDHFR activity [1]: potent inhibitors
- regrowth (S. maltophilia strain 1; 64 μg/ml, after 12 h incubation): Regrowth was observed
- concentration with bactericidal effect (S. maltophilia strain 1; at 12 h): 4 times the MIC
- concentration with bacteriostatic effect (S. maltophilia strain 1; at 12 h): 2 times the MIC
